Experimental findings from US11203582B2, “Benzamide derivatives for inhibiting endoplasmic reticulum (ER) stress” (The Board of Regents of the University of Oklahoma, priority 2017, dated 2021) are described below.

Common to all, as to type: cell-based, rat
One experiment concerns cleaved caspase-3. In words: Western blotting of cleaved caspase-3 in Tm-treated INS-1 cells. To be noted: Tm co-treatment, 24 h. As for the experimental part:
To determine whether the increase in β-cell viability following treatment with 13d is caused by a suppression of apoptotic cell death, several apoptosis-related makers were measured. First, levels of cleaved caspase-3 and cleaved PARP were assayed by Western blotting. Caspase-3, a member of executioner caspases activated by cleavage, plays essential roles in initiating apoptotic signaling and executing the final stages of cell death, whereas the nuclear enzyme poly (ADP-ribose) polymerase (PARP) plays an important role in a number of cellular processes involving DNA repair and cell death. […] However, upon severe ER stress, caspase 3 undergoes proteolytic cleavage to produce two subunits that dimerize to form the active enzyme, which in turns cleaves PARP. […] A further assessment of apoptotic INS-1 cell death was performed using TUNEL assays to detect nuclear DNA fragmentation (a consequence of cell apoptosis) in situ.
INS-1 cells were seeded in 60-mm dishes at 8×10^5 cells/dish and treated for the indicated times. Cells were then washed with PBS and lysed with lysis buffer (Cell Signaling Technology, Danvers, Mass.) containing EDTA (Thermo, Ill.) and phosphatase inhibitors (Thermo). Aliquots of 20 μg total protein were separated on 7% SDS-PAGE gels (Life Technologies) and transferred to PVDF membranes (Life Technologies). […]

The next experiment deals with GRP94 mRNA. In words: qRT-PCR of GRP94 mRNA in Tm-treated INS-1 cells. As to conditions: Tm 0.1 μg/mL co-treatment, 8 h. As for the experimental part:
INS-1 cells were treated with or without Tm (0.1 μg/mL) in the presence of 13d or DMSO for 8 h. Bip (A) and GRP94 (B) mRNA levels were analyzed by qRT-PCR. Relative mRNA levels were normalized against the housekeeping gene Cyclophilin A using the comparative CT method. The results are the means of 3 replicate wells and representative of 3 independent experiments. ** P<0.01 compared with Tm treatment alone. Error bars indicate SD.
We then investigated the effects of 13d on the activation of ATF6 in β-cells under ER stress. Activated ATF6 acts as a homodimer or as an ATF6-XBP1s heterodimer to control the up-regulation of select UPR target genes including the chaperone proteins BiP and GRP94. Therefore, these two chaperone proteins were evaluated in the INS-1 cells in the presence of Tm.
INS-1 cells were seeded at 4×10^5 cells/well in 6-well plates and treated with compounds for the indicated times. Total RNA was extracted using TRIzol reagent (Invitrogen, Carlsbad, Calif.) according to the manufacturer's protocol, and 2 μg of total RNA was reverse transcribed using a Superscript kit (Invitrogen). […] Relative mRNA levels were normalized against the housekeeping gene Cyclophilin A and were determined by ΔΔCt calculated from the difference in ΔCt values between the target gene and Cyclophilin A with and without treatment, based on comparative CT (cycle threshold) method. […]
For orientation: Real-time PCR tracks product formation cycle by cycle.

The subject of the next experiment is ATF4 mRNA. Nature of the experiment: qRT-PCR of ATF4 mRNA in INS-1 cells. As for the experimental part:
(§1) (A, B) INS-1 cells were treated with or without Tm (0.1 μg/mL) in the presence of 13d or DMSO for 8 h. ATF4 (A) and CHOP (B) mRNA levels were analyzed by qRT-PCR. Relative mRNA levels were normalized against the housekeeping gene Cyclophilin A using the comparative CT method. The results were expressed as the fold-increase over mRNA levels in untreated control cells and are the means of 3 replicate wells and representative of 3 independent experiments. ** P<0.01 compared with Tm treatment alone. Bar indicates SD. (C-E) INS-1 cells were treated with or without Tm (0.1 μg/mL) in the presence of 13d or DMSO for 8 hATF4 and CHOP protein levels were determined by Western blotting (C). α-Tubulin was used as an internal control. Quantification of ATF4 (D) and CHOP (E) protein levels was analyzed by ImageJ program, which was normalized by α-Tubulin protein level. The data shown are representative of 3 independent experiments.
Having established that compound 13d restores ER stress-impaired β-cell survival and function, we next investigated the mechanism of action by which 13d protects β-cells against ER stress. Chronic or severe ER stress activates all three branches of the UPR, PERK, IRE1α, and ATF6, leading to eventual cell death. First, we determined the effect of 13d on the activation of the PERK pathway in β-cells under ER stress. […]

The next experiment relates to CHOP mRNA. In words: qRT-PCR of CHOP mRNA in INS-1 cells. As for the experimental part:
as §1
Having established that compound 13d restores ER stress-impaired β-cell survival and function, we next investigated the mechanism of action by which 13d protects β-cells against ER stress. Chronic or severe ER stress activates all three branches of the UPR, PERK, IRE1α, and ATF6, leading to eventual cell death. First, we determined the effect of 13d on the activation of the PERK pathway in β-cells under ER stress. PERK activation phosphorylates eukaryotic translation initiator factor 2α (eIF2α), which in turn allows for the up-regulation of activating transcription factor 4 (ATF4) and of the pro-apoptotic gene C/EBP-homologous protein (CHOP). Thus, we used ATF4 and CHOP expression levels as markers of PERK pathway activation. […]
INS-1 cells were seeded at 4×10^5 cells/well in 6-well plates and treated with compounds for the indicated times. […] Relative mRNA levels were normalized against the housekeeping gene Cyclophilin A and were determined by ΔΔCt calculated from the difference in ΔCt values between the target gene and Cyclophilin A with and without treatment, based on comparative CT (cycle threshold) method. […]

As to `O=C(NCc1ccc(C(F)(F)F)cc1)c1cccc(CN2CCCCC2)c1` [Compound 13d, N-(4-trifluoromethylphenmethyl)-3-(N-piperidinyl)methyl benzamide], the “Tm-induced cleavage of caspase-3” value in the experiment with cleaved caspase-3 was “completely or significantly diminished”. Moreover, the “Tm-induced up-regulation of GRP94 mRNA” value in the experiment with GRP94 mRNA is “almost completely reversed”. Further, the “Tm-induced increase in ATF4 mRNA level” value in the experiment with ATF4 mRNA (Tm 0.1 μg/mL co-treatment, 8 h) is “almost completely abolished”. The “effect on ATF4 mRNA level on its own” value in the experiment on ATF4 mRNA (without Tm) is on record as “no effect”. For the same compound, the “Tm-induced increase in CHOP mRNA level” value in the experiment with CHOP mRNA (Tm 0.1 μg/mL co-treatment, 8 h) is reported as “almost completely abolished”. Also, the IC50 in the experiment with CHOP mRNA (Tm, 8 h, read-out: IC50 for inhibition of Tm-induced CHOP expression) was 37 nM. In the experiment on CHOP mRNA (without Tm), the “effect on CHOP mRNA level on its own” value is on record as “no effect”.

As a reminder, the IC50 is the concentration at which inhibition is half-maximal.
